Patent publication US20060040980A1, “Ionophores as cancer chemotherapeutic agents” (priority 2004, published 2006)
“Also recorded” adds a separate entry of the source. Read-outs that look alike come from different tables or passages of the source.

Tests used:
[1] = system: Raji cells (a human B-cell Burkitt lymphoma line); assay: MTS cell viability assay, Raji; format: cell-based; conditions: for IC50: Homo sapiens, Raji (B-cell), MTS assay, n = 3, read-out: IC50 (μM) towards human tumor cell lines; for Effect of added copper, zinc or iron on CQ's cytotoxic effects / Interaction of clioquinol and DHA in killing cells (isobologram analysis): Raji cells; for Effect of added copper, zinc or iron on CQ's cytotoxic effects: ZnCl2, CuCl2, FeCl2 premixed with 5 μM clioquinol, 72 h; for Interaction of clioquinol and DHA in killing cells (isobologram analysis): ratio of IC50s
Protocol: (§1) Cell viability was determined with the MTS assay. IC50 was calculated using nonlinear regression analysis (Prism 3.0). […] Data (n=3) are presented as means±S.E.M.
(§2) The CellTiter 96® Aqueous ONE Solution (Promega) was used to assess cellular viability via reduction of (3-(4,5-dimethylthiazol-2-yl)-5-(3carboxymethoxyphenyl)-2-(4-sulfophenyl)-2H-tetrazolium (MTS). An ELISA-based apoptosis assay kit was from Roche, and an anti-poly (ADP-ribose) polymerase (PARP) monoclonal antibody was from BIOMOL Research Laboratories Inc. Nude mice were from Animal Technology Limited. All other reagents were analytic grade.
(§3) DHL-4 cells were provided by Dr. Linda Boxer (Stanford University), A2780 cells by Dr. Stephen Howell (University of California, San Diego), SiHa cells by Dr. Doris Benbrook (University of Oklahoma). All other cells were obtained from the ATCC. Cells were routinely grown in a […], in an environment containing 5% CO2, and passed every three days. Cell viability was analyzed using the MTS assay. […] The MTS assay was performed using the protocol provided by the manufacturer. In short, 20 μL of MTS solution was added to each well, and cells were incubated at 37° C. for 1-2 h. The optical density (490 nm) of each well was then determined.
(§4) IC50 values were calculated with nonlinear regression analysis using Graphpad Prism 3.0 (Graphpad Software, Inc.).
(§5) The cells studied included human B-cell lymphoma lines (DHL-4, Raji), breast (MCF-7, MDA-MB231), ovarian (A2780), cervical (SiHa), bladder (T24), and pancreatic (Mpanc-96) cancer cells.
as §1
Inventors reasoned that the cytotoxic effects of a chelator would be overcome by an excess of the chelated metal. Inventors added increasing concentrations of copper, zinc or iron to cells treated with CQ. […] Cell viability was expressed as a percentage of untreated cells.

tumor cells [2] = assay: Modulation of CQ-mediated cell killing by anti-oxidants and zinc chelators; format: cell-based; conditions: added to CQ-treated cells
From the text: Inventors then studied the effects of the addition of zinc chelators. Since Ca^++ has a lower affinity for EDTA than Zn^++, the addition of […] it.

DHL-4 (B-cell) = assay: MTS cell viability assay, DHL-4; format: cell-based; conditions: Homo sapiens, read-out: IC50 (μM) of clioquinol towards human tumor cell lines, 72 h, n = 3
From the text: as §2, §3, §4, §5

A2780 (ovarian) = assay: MTS cell viability assay, A2780; format: cell-based, human
From the text: as §2, §3, §4, §5

MDA-MB-231 (breast) = assay: MTS cell viability assay, MDA-MB-231; format: cell-based; conditions: Homo sapiens, read-out: IC50 (μM) of clioquinol towards human tumor cell lines, 72 h, n = 3
From the text: as §2, §3, §4, §5

T24 (Bladder) = assay: MTS cell viability assay, T24; format: cell-based; conditions: Homo sapiens, read-out: IC50 (μM) of clioquinol towards human tumor cell lines, 72 h, n = 3
From the text: as §2, §3, §4, §5

M-panc-96 (pancreas) = assay: MTS cell viability assay, M-panc-96; format: cell-based; conditions: Homo sapiens, MPANC96, read-out: IC50 (μM) of clioquinol towards human tumor cell lines, 72 h, n = 3
From the text: as §2, §3, §4, §5

MCF-7 (breast) = assay: MTS cell viability assay, MCF-7; format: cell-based; conditions: Homo sapiens, MCF7, read-out: IC50 (μM) of clioquinol towards human tumor cell lines, 72 h, n = 3
From the text: as §2, §3, §4, §5

SiHa (cervical) = assay: MTS cell viability assay, SiHa; format: cell-based; conditions: Homo sapiens, read-out: IC50 (μM) of clioquinol towards human tumor cell lines, 72 h, n = 3
From the text: as §2, §3, §4, §5

human cancer cell lines = assay: Viability of eight human cancer cell lines (overall statement); format: cell-based
From the text: as §2, §3, §4, §5

tumor cells [3] = assay: Lipid peroxidation (thiobarbituric acid reactive substances) in CQ-treated tumor cells; format: cell-based; conditions: CQ treatment of tumor cells
A2780 cells = assay: Cellular zinc level measurement with FluoZin-3; format: cell-based, human; conditions: A2780, 30 μM clioquinol, 1 h, increasing zinc
Protocol: A sensitive water-soluble salt form of a fluorescent zinc indicator was used for cellular zinc level measurement following the manufacture's protocol (FluoZin-3, Molecular Probes). A2780 (10,000/well) and Raji cells (30,000/well) were plated in a 96-well plate.
FluoZinc-3 (final concentration of 3 μM) was added and the cells were incubated for another 30 min at 37° C. After the incubation, cells were washed twice with fresh medium to remove any dye nonspecifically associated with the cell surface. Additional medium was added and the cells were incubated for a further 30 min before fluorescence measurements were commenced. The fluorescence was measured at 485nm/535nm (excitation/emission), using a Wallac 1420 Multilabel Counter (Perkin Elmer).
The zinc ionophore pyrithione was used as a positive control.

Raji cells = assay: Apoptosis ELISA (cytoplasmic histone-associated DNA fragments) and PARP/caspase-3 Western blot; format: cell-based, human; conditions: 24 h, PARP cleavage
Protocol: Western blot analysis was performed as previously described (57-59). Briefly, cells were lysed in a lysis buffer containing 50 MM Tris, pH 7.4, 50 mM NaCl, 0.5% NP-40, 50 mM NaF, 1 mM Na3VO4, 1 mM phenylmethylsulfonyl fluoride, 25 μg/ml leupeptin, and 25 μg/ml aprotinin. The lysates were centrifuged at 15,004×g for 15 min and the supernatants were collected for protein concentration determination, SDS-PAGE, and western blot analysis with specific antibodies, as described.
An ELISA-based kit (Roche Diagnostics Coup., Ind.) was used to quantitatively measure cytoplasmic histone-associated DNA fragments (mononucleosomes and oligonucleosomes), a measure of apoptosis, according to the manufacturer's instructions.
Cellular extracts were analyzed using an ELISA-based assay (Roche Diagnostics Corp., Indianapolis, Ind.) that quantifies release into the cytoplasm of histone-associated DNA fragments (mononucleosomes and oligonucleosomes), a measure of apoptosis. In addition, the lysates were subjected to SDS-PAGE followed by Western blotting using an anti-poly (ADP-ribose) polymerase (PARP) monoclonal antibody (clone C-2-10) to detect PARP cleavage, a sign of caspase-dependent apoptosis.
Cell lysates were prepared and apoptosis determined using an ELISA that quantified cytoplasmic DNA-histone complexes. […]

[4] = system: A2780 (a human ovarian cancer line) xenograft; assay: A2780 xenograft in nude mice; format: in vivo; conditions: 28 mg/kg, 5 days a week
Protocol: Control animals were given Intralipid, without Cloquinol. […] Animals' weights were also measured 3 times a week.
In a separate experiment, nude mice were injected with the ovarian cancer cell line, A2780 and treated similarly. Mice were killed when the tumor reached 10% of their body weight.
Tumor size was calculated and expressed as […] .

[5] = system: immortalized endothelial cell line (EAhy.926); assay: Endothelial cell tube formation assay on Matrigel; format: cell-based; conditions: EAhy.926 on Matrigel
Protocol: An immortalized endothelial cell line (EAhy.926) was plated on Matrigel at a density of 15,000 per well in the absence or presence of the drugs indicated overnight at 37° C. Branch formation was used as a measure of tube formation. Each value was determined by averaging the number of branches per field (250×) in 3 representative fields. The final bFGF concentration was 5 ng/mL.

[6] = system: Raji (a human B-cell lymphoma line) xenograft
Protocol: Xenograft model Nude mice (Harlan Sprague-Dawley, Indianapolis, Ind.) were maintained in accordance with the Institutional Animal Care and Use Committee (IACUC) procedures and guidelines. 10×10^6 Raji (a human B-cell lymphoma line), or 5×10^6 A2780 (a human ovarian cancer line) cells were suspended in 100 μL of phosphate buffered saline, mixed with 50% Matrigel, and implanted subcutaneously into the flanks of 5-week-old female nude mice. […] The tumor volume was assessed three times a week using calipers to measure the perpendicular diameters of the tumor, and calculated with the formula; v=l×(w)^2 (0.5), where v=tumor volume, l=length of tumor and w=width of donor (60). Animals' weights were also measured 3 times a week.
Nude mice were injected subcutaneously with Raji cells.

[7] = cited from earlier work
albumin = albumin (Homo sapiens, UniProt P02768); conditions: read-out: Affinity of binding to albumin; cited from earlier work
[8] = system: mouse model of Alzheimer's disease; conditions: cited from earlier work
[9] = system: patients with Alzheimer's disease; conditions: cited from earlier work
mouse brains = conditions: cited from earlier work
animals = conditions: high doses; cited from earlier work
[10] = target: purified bovine erythrocyte SOD 1 (Bos taurus, UniProt P00442); assay: SOD1 activity, xanthine oxidase/cytochrome C method, purified enzyme; conditions: purified bovine erythrocyte SOD 1, in vitro
[11] = oral, 750 mg a day, Alzheimer's trial

Sequence of albumin (P02768 25-609): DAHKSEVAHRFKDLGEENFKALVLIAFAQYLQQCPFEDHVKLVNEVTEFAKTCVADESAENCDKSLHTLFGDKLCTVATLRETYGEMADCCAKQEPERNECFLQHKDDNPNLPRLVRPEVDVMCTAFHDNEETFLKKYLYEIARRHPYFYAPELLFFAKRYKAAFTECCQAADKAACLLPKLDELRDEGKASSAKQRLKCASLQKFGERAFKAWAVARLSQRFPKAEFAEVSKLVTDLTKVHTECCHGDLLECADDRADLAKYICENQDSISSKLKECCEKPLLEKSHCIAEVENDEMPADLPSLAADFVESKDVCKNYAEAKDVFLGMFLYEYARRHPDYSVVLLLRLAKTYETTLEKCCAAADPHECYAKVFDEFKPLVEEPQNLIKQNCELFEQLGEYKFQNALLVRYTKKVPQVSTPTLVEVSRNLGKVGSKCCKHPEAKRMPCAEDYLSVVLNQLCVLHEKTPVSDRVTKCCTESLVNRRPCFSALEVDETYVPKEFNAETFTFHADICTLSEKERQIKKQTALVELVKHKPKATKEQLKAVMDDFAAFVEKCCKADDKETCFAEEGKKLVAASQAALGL
Sequence of purified bovine erythrocyte SOD 1 (P00442 whole entry): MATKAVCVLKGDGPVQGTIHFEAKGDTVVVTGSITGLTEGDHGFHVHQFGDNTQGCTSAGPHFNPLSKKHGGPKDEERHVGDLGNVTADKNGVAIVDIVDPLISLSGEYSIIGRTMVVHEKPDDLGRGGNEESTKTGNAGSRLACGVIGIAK

## CC/C=C\C/C=C\C/C=C\C/C=C\C/C=C\C/C=C\CCC(=O)O [DHA, docosahexaenoic acid]
[1]
  IC50: 85 µM

## Cc1c(C)c2c(c(C)c1O)CCC(C)(C(=O)O)O2 (stereo not drawn) [Trolox]
Tumor cells [2]
  Protection of cells against CQ by anti-oxidants: do not protect

## O=C([O-])CN(CCN(CC(=O)[O-])CC(=O)[O-])CC(=O)[O-].[Ca+2].[Na+].[Na+] [CaEDTA]
Tumor cells [2]
  Effect of zinc chelators on CQ-mediated cell killing: decrease in CQ-mediated cell killing

## vitamin E
Tumor cells [2]
  Protection of cells against CQ by anti-oxidants: do not protect

## Oc1c(I)cc(Cl)c2cccnc12 [clioquinol, 5-chloro-7-iodo-8-hydroxyquinoline]
DHL-4 (B-cell)
  IC50: 6.7 µM
[1]
  IC50: 12.4 µM
  Effect of added copper, zinc or iron on CQ's cytotoxic effects: potentiation
  Interaction of clioquinol and DHA in killing cells (isobologram analysis): potentiate DHA; also recorded: synergy
[1]; listed as CQ
  Effect of added copper, zinc or iron on CQ's cytotoxic effects: potentiated
  Interaction of clioquinol and DHA in killing cells (isobologram analysis): synergism
A2780 (ovarian); A2780 cells, time-course studies
  Exposure time sufficient for full cytotoxicity: 8 h
A2780 (ovarian); Homo sapiens, read-out: IC50 (μM) of clioquinol towards human tumor cell lines, A2780 (ovarian), 72 h, n = 3
  IC50: 14.2 µM
MDA-MB-231 (breast)
  IC50: 19.9 µM
T24 (Bladder)
  IC50: 20 µM
M-panc-96 (pancreas)
  IC50: 23.6 µM
MCF-7 (breast)
  IC50: 29.7 µM
SiHa (cervical)
  IC50: 38.8 µM
Human cancer cell lines; eight human cancer cell lines, 72 h, read-out: IC50s, range over all cell lines tested
  IC50: 10 to 40 µM
Human cancer cell lines; human cancer cells
  IC50s in killing human cancer cells (in words): low micromolar range
Tumor cells [3]
  Lipid peroxidation (thiobarbituric acid reactive substances): does not lead to increased lipid peroxidation
A2780 cells
  Zinc ionophore activity (fluorescent zinc indicator): is a zinc ionophore
A2780 cells; listed as CQ
  Zinc ionophore activity (fluorescent zinc indicator): is indeed an ionophore
Raji cells
  Induction of apoptosis: induces apoptosis
[4]
  Survival of treated mice: prolonged survival
  Tumor growth: inhibited tumor growth
[5]
  Anti-angiogenic effect (cell survival and tube branches): anti-angiogenic effect
[5]; bFGF 5 ng/mL, overnight
  Endothelial cell tube formation: inhibited in a dose dependent manner
[6]; Raji xenograft, 28 mg/kg ip, 5 days a week
  Tumor growth: inhibition of tumor growth
[6]; mouse, in vivo, ip, 28 mg/kg
  Signs of toxicity: No animals exhibited signs of toxicity
[7]; man, in 12 hours
  Absorbed from the skin: 40%
[7]; man, in 72 hours
  Excreted in the urine after absorption from the GI tract: 25%
[7]; man
  Serum half-life: about 12 hours
[7]; [11]
  Trough blood levels: about 25 μM
  Trough, steady-state blood levels: 7.6 µg/mL
[7]; oral, 750 mg a day, Alzheimer's trial, listed as CQ
  Trough blood levels: 25 µM
albumin
  Kd: 10 nM
[8]; mice
  Dose administered safely: 30 mg/kg/day
[8]; mouse model of Alzheimer's disease
  Sedimentable amyloid in the brains: decrease
[9]; Australia, 36 patients, 250, 500, 750 mg a day over nine months with vitamin B12
  Neurotoxicity in patients: No neurotoxicity
[9]; Sweden, 10 or 80 mg a day for 21 days
  Toxicity in patients: without experiencing toxicity
Mouse brains
  Accumulation of vitamin B12 in the brain: decreased
animals
  Neurotoxicity in animal studies: can induce neurotoxicity
[10]
  Effect on purified SOD 1: inhibition

## [O-][n+]1ccccc1S [pyrithione, 2-mercaptopyridine 1-oxide]
[5]
  Anti-angiogenic effect (cell survival and tube branches): anti-angiogenic effect

## O=C(O)CN(CCN(CC(=O)O)CC(=O)O)CC(=O)O.[Zn] [ZnEDTA]
Tumor cells [2]
  Effect of zinc chelators on CQ-mediated cell killing: not
